Source: patent publication EP0754455A1, “PHARMACEUTICAL COMPOSITIONS BASED ON AMINOMETHYLINDOLES AND THEIR THERAPEUTICAL APPLICATION AS NEUROPROTECTORS IN PARKINSON AND ALZHEIMER DISEASES” (CONSEJO SUPERIOR INVESTIGACIONES CIENTIFICAS (CSIC), priority 1995, dated 1996)
Like-named read-outs stand apart in the source and are kept apart here.

Columns and labels:
[1] = molecular target: T1, MAO-A (Mus musculus, UniProt Q64133); test: Ex vivo inhibition of brain MAO-A after i.p. administration; assay type: in vivo, C57/BL mice; details: mouse brain homogenate 2 hours after i.p., l-deprenyl 10 mg/Kg, tested compound 4 mg/Kg
T1 construct: the brains homogenised in potassium phosphate buffer 50 mM, pH 7.2; from tissue; host or cells: C57/BL mouse brain homogenate
T1 sequence (Q64133 1-526): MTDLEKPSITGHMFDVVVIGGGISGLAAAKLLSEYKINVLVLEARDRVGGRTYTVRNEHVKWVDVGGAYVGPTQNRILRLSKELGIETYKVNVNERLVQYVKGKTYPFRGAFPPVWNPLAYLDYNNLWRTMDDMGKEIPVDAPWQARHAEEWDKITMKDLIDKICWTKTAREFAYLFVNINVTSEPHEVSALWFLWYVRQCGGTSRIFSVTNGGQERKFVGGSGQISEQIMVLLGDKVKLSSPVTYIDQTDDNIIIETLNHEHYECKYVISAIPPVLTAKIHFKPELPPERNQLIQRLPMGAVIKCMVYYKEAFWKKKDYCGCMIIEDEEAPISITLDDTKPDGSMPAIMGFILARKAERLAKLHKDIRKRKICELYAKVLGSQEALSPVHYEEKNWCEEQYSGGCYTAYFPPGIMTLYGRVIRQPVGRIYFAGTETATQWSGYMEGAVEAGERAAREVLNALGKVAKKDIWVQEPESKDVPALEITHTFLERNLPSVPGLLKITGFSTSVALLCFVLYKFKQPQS
Experimental: The pharmacological assays were carried out on C57/BL mice. These animals are sensitive to the induction of the symptomatology of Parkinson's disease through the action of MPTP.
The animals were sacrificed by decapitation after 2 hours and the brains homogenised in potassium phosphate buffer 50 mM, pH 7.2. Determinations were made of the MAO-A and MAO-B activity in each case using radiometric methods.

[2] = molecular target: T2, dopamine carrier (Homo sapiens, UniProt Q01959); test: Dopamine carrier inhibition in purified synaptosomes of human caudate; assay type: biochemical; details: human caudate synaptosomes, dopamine (DA) 0.1 µM; read-out: IC50(max)
T2 construct: This assay was carried out in purified synaptosomes of human caudate; from tissue; host or cells: post-mortem human caudate, purified synaptosomes
T2 sequence (Q01959 whole entry): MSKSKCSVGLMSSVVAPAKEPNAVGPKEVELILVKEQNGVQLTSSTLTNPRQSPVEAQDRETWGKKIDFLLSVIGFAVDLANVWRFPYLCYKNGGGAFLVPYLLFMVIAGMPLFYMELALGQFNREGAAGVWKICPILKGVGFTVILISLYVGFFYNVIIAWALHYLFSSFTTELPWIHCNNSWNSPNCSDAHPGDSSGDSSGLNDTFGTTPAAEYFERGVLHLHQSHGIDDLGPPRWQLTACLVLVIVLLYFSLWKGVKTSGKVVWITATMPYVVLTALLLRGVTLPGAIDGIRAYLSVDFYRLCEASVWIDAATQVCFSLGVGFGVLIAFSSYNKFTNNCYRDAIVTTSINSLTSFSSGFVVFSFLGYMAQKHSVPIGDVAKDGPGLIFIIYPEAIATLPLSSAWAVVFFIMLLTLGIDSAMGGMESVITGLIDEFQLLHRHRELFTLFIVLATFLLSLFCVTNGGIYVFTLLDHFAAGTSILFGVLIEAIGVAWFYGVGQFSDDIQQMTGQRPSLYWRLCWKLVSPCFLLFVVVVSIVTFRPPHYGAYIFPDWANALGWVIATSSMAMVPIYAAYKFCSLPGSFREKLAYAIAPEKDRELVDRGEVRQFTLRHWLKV
Experimental: This assay was carried out in purified synaptosomes of human caudate obtained using the same method as described by Rodríguez et al. 1987 Biochem Pharmac 36, 974-976.
The studies were carried out with the same inhibitors used in the rat tissue. The dopamine (DA) concentration was 0.1 µM, a value chosen from the kinetic constants obtained.

[3] = molecular target: T3, MAO-A (Rattus norvegicus, UniProt P21396); test: biochemical; assay type: biochemical, Sprague-Dawley rat
T3 construct: human and rat tissue to obtain the isolated forms of monoamine oxidase A and B; from tissue
T3 sequence (P21396 1-526): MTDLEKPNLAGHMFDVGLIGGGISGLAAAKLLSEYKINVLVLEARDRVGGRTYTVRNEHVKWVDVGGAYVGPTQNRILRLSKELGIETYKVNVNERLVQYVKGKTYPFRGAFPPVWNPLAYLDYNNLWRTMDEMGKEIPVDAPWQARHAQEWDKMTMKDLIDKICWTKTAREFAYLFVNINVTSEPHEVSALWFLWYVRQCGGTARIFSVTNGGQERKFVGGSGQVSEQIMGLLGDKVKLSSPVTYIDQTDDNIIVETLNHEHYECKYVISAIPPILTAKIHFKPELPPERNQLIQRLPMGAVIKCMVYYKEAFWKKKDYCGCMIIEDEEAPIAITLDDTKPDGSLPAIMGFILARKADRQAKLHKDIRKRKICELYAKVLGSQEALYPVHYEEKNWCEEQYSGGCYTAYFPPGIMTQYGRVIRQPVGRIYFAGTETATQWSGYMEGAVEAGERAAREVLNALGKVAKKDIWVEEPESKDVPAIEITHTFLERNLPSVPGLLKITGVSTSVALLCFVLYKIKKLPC
Experimental: The mitochondrial portion of Sprague-Dawley rat was used to determine the MAO-A and MAO-B activity.
Determinations were made of the comparative MAO-A and MAO-B activity inhibition curves of the various compounds under study at time 0 and 30 min. by measuring the remaining activity to 5-HT and PEA as substrates.

[4] = molecular target: T4, MAO-B (Rattus norvegicus, UniProt P19643); test: Kinetic parameters of suicide-type inhibition, MAO-B (selectivity K1 MAO-A / K1 MAO-B); assay type: biochemical, Sprague-Dawley rat; details: selectivity for MAO-B
T4 construct: from tissue; host or cells: Sprague-Dawley rat liver, mitochondrial fraction
T4 sequence (P19643 1-520): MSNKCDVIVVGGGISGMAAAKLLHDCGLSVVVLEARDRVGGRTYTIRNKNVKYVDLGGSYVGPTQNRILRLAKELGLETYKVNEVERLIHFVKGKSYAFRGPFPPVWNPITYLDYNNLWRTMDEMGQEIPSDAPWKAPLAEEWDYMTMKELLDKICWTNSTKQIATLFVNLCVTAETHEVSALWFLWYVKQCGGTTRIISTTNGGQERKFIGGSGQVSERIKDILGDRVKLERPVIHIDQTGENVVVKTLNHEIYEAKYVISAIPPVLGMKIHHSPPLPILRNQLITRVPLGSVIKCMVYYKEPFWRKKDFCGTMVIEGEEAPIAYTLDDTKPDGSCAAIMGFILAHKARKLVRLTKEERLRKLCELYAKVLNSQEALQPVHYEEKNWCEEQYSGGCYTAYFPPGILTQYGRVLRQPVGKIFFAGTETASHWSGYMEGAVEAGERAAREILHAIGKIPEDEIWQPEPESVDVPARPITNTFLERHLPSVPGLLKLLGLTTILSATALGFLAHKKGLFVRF
Excerpt: K1 is the affinity constant of the first stage of the reaction and K1 MAO-A / K1 MAO-B the expression of the selectivity.
K^1cat is the velocity constant for the formation of the covalent irreversible complex during the second stage of the process. To compare the values of these constants towards the two forms of MAO, we express the inhibition efficacy as the ratio K^1cat/K1. The value of these constants (see Tables 2 and 3), is the result of three different experiments, with their corresponding SEM.

With `C#CCNCc1cc2cc(OCc3ccccc3)ccc2[nH]1` [FA-73] the remaining activity at 4 mg/kg ([1]; ip, control = 100%) was 96.2%, the “MAO-A ACTIVITY” value ([1]; control 485) was 467 and the IC50 [2] was 360 nM. For the same compound, the IC50 [3] was 15.8 µM, the “dependence of the inhibition on the incubation time” value ([3]; MAO-A) was “drop in the formation of product as a function of the time of incubation” and the “irreversibility of the inhibition process” value ([3]; MAO-A, inhibitor concentrations close to the IC50) was “irreversibility”. For the same compound, the IC50 ([3]; read-out: IC50 30 min., MAO-A (lines A..), substrate 5-HT, 30 min incubation, rat mitochondria) was 1.25 µM and the “K1 MAO-A/K1 MAO-B” value [4] was 1066.6.
